Laboratory results taken from ChEMBL document CHEMBL3232969, “Structure-based design and synthesis of tricyclic IAP (Inhibitors of Apoptosis Proteins) inhibitors” (Bioorg Med Chem Lett, 2014).
Values after ≈ are worked out from the molar mass of the structure shown.

Tests used:
[1] = molecular target: Baculoviral IAP repeat-containing protein 2 (Homo sapiens, UniProt Q13490)
Description: Inhibition of cIAP1 BIR3 domain (unknown origin) by fluorescence polarization assay

[2] = (§1) Percentage unbound in human plasma
[3] = Lipophilicity, log D of the compound; conditions: octanol/water
[4] = Intrinsic clearance in human liver microsomes
[5] = Aqueous solubility of the compound
[6] = test system: MDA-MB-231; experiment: Growth inhibition of human MDA-MB-231 cells; assay type: functional
[7] = molecular target: E3 ubiquitin-protein ligase XIAP (Homo sapiens, UniProt P98170); experiment: Inhibition of XIAP BIR3 domain (unknown origin) by fluorescence polarization assay
[8] = test system: Plasma; experiment: as §1

Row | Structure (SMILES) | fraction unbound ([2]; Fu) | logD ([3]; logD) | microsomal CLint ([4]; liver microsomes, CLH) [µL/min/mg] | solubility [5] [µM] | GI50 ([6]; Homo sapiens, MDA-MB-231) [nM] | IC50 [7] [nM] | further results
1 | CN[C@@H](C)C(=O)N[C@H](C(=O)N1CC[C@H]2CCN(CCc3ccccc3)C[C@H]21)C1CCCCC1 | 0.057 | 2.5 | 32 | > 1000 | – | – | IC50 [1]: 27 nM
2 | CN[C@@H](C)C(=O)N[C@H]1CCC[C@H]2C[C@H]3CCN(CCc4ccccc4)C[C@H]3N2C1=O | 0.51 | 1.3 | < 4 | > 1000 | 320 | – | –
3 | CN[C@@H](C)C(=O)N[C@H]1CCC[C@H]2C[C@H]3CCN(CCc4ccc(C(F)(F)F)cc4)C[C@H]3N2C1=O | 0.18 | 2.1 | 5.2 | > 1000 | 970 | > 10000 | –
4 | CN[C@@H](C)C(=O)N[C@H]1CCC[C@H]2SC(C)(C)C(C(=O)Nc3cc(C)nn3-c3ccccc3)N2C1=O (some centres undefined) | – | – | – | – | – | – | IC50 [1]: 50 nM
5 | CN[C@@H](C)C(=O)N[C@H]1CCC[C@H]2C[C@H]3CCN(CCc4ccc(Br)cc4)C[C@H]3N2C1=O | 0.17 | 2.2 | 4.7 | > 1000 | 28 | – | –
6 | CN[C@@H](C)C(=O)N[C@H]1CCC[C@H]2C[C@H]3CCN(CCc4ccccc4F)C[C@H]3N2C1=O | 0.49 | 1.4 | < 4 | – | 96 | – | –
7 | CN[C@@H](C)C(=O)N[C@H]1CCC[C@H]2C[C@H]3CCN(CCc4ccc(F)cc4)C[C@H]3N2C1=O | 0.48 | 1.3 | < 4 | > 1000 | 120 | – | IC50 [1]: 21 nM
8 | CN[C@@H](C)C(=O)N[C@H]1CCC[C@H]2C[C@H]3CCN(CCc4ccccc4OC)C[C@H]3N2C1=O | 0.34 | 0.9 | < 4 | > 1000 | 230 | – | –
9 | CN[C@@H](C)C(=O)N[C@H]1CCC[C@H]2C[C@H]3CCN(CCc4cccc(OC)c4)C[C@H]3N2C1=O | 0.47 | 0.9 | < 4 | > 1000 | 670 | – | –
10 | CN[C@@H](C)C(=O)N[C@H]1CCC[C@H]2C[C@H]3CCN(CCc4ccc(OC)cc4)C[C@H]3N2C1=O | 0.47 | 1 | < 4 | > 1000 | 2600 | – | –
11 | CN[C@@H](C)C(=O)N[C@H]1CCC[C@H]2C[C@H]3CCN(CCc4ccc(O)cc4)C[C@H]3N2C1=O | – | 0.2 | – | > 1000 | 200 | – | –
12 | CN[C@@H](C)C(=O)N[C@H]1CCC[C@H]2C[C@H]3CCN(CCc4ccccc4C)C[C@H]3N2C1=O | 0.48 | 1.3 | 6.8 | > 1000 | 370 | – | –
13 | CN[C@@H](C)C(=O)N[C@H]1CCC[C@H]2C[C@H]3CCN(CCc4cccc(C)c4)C[C@H]3N2C1=O | 0.47 | 1.3 | 6.9 | > 1000 | 310 | – | –
14 | CN[C@@H](C)C(=O)N[C@H]1CCC[C@H]2C[C@H]3CCN(CCc4ccc(C)cc4)C[C@H]3N2C1=O | 0.32 | 1.6 | < 4 | > 1000 | 160 | – | –
15 | CN[C@@H](C)C(=O)N[C@H]1CCC[C@H]2C[C@H]3CCN(CCc4ccc(Cl)cc4)C[C@H]3N2C1=O | 0.24 | 1.8 | 6.6 | > 1000 | 340 | – | –
16 | CN[C@@H](C)C(=O)N[C@H]1CCC[C@H]2C[C@H]3CCN(CCc4ccc(Cl)c(Cl)c4)C[C@H]3N2C1=O | 0.065 | 2.3 | 28 | > 1000 | 260 | – | –
17 | CN[C@@H](C)C(=O)N[C@H]1CCC[C@H]2C[C@H]3CCN(CCc4ccc([N+](=O)[O-])cc4)C[C@H]3N2C1=O | 0.47 | 1 | < 4 | > 1000 | 280 | – | –
18 | CN[C@@H](C)C(=O)N[C@H]1CCC[C@H]2C[C@H]3CCN(CCc4c[nH]c5ccccc45)C[C@H]3N2C1=O | – | 0.9 | < 4 | > 1000 | 490 | – | –
19 | CN[C@@H](C)C(=O)N[C@H]1CCC[C@H]2C[C@H]3CCN(CCc4scnc4C)C[C@H]3N2C1=O | – | 0.3 | – | > 1000 | 4500 | – | –
20 | CN[C@@H](C)C(=O)N[C@H]1CCC[C@H]2C[C@H]3CCN(CCc4ccccn4)C[C@H]3N2C1=O | – | -0.2 | – | – | 10000 | > 10000 | –

Row | Structure (SMILES) | fraction unbound ([2]; Fu) | logD ([3]; logD) | microsomal CLint ([4]; liver microsomes, CLH) [µL/min/mg] | solubility [5] [µM] | GI50 ([6]; Homo sapiens, MDA-MB-231) [nM] | IC50 [7] [nM] | further results
21 | CN[C@@H](C)C(=O)N[C@H]1CCC[C@H]2C[C@H]3CCN(CCC4=C(C)OCN4C)C[C@H]3N2C1=O | – | 0.1 | – | > 1000 | – | > 10000 | –
22 | CN[C@@H](C)C(=O)N[C@H]1CCC[C@H]2C[C@H]3CCN(CCc4nc5cc(C)ccc5[nH]4)C[C@H]3N2C1=O | – | 1.3 | 9.1 | > 1000 | – | > 10000 | –
23 | CN[C@@H](C)C(=O)N[C@H]1CCC[C@H]2C[C@H]3CCN(Cc4ccccc4)C[C@H]3N2C1=O | 0.52 | 0.8 | 7.1 | > 1000 | > 11000 | > 10000 | –
24 | CN[C@@H](C)C(=O)N[C@H]1CCC[C@H]2C[C@H]3CCN(CCCc4ccccc4)C[C@H]3N2C1=O | 0.47 | 1.6 | – | – | > 11000 | > 10000 | –
25 | CN[C@@H](C)C(=O)N[C@H]1CCC[C@H]2C[C@H]3CCN(CCC4CCCCC4)C[C@H]3N2C1=O | 0.49 | 1.5 | 5 | > 1000 | 1300 | > 10000 | –
26 | CN[C@@H](C)C(=O)N[C@H]1CCC[C@H]2C[C@H]3CCN(CC4CCCCC4)C[C@H]3N2C1=O | – | 0.9 | 8.9 | – | 2000 | > 10000 | –
27 | CN[C@@H](C)C(=O)N[C@H]1CCC[C@H]2C[C@H]3CCN(CC(C)C)C[C@H]3N2C1=O | – | 0.1 | – | – | – | > 10000 | –
28 | CN[C@@H](C)C(=O)N[C@H]1CCC[C@H]2C[C@H]3CCN(C(c4ccccc4)c4ccccc4)C[C@H]3N2C1=O | 0.049 | 2.7 | 14 | > 1000 | – | > 10000 | –
29 | CCCCN1CC[C@@H]2C[C@@H]3CCC[C@H](NC(=O)[C@H](C)NC)C(=O)N3[C@@H]2C1 | – | – | – | – | – | > 10000 | IC50 [1]: 1200 nM
30 | CN[C@@H](C)C(=O)N[C@H]1CCC[C@H]2C[C@H]3CCN(C(=O)Cc4ccccc4)C[C@H]3N2C1=O | 0.66 | 0.4 | 6.5 | > 1000 | 320 | – | –
31 | CN[C@@H](C)C(=O)N[C@H]1CCC[C@H]2C[C@H]3CCN(C(=O)C(c4ccccc4)c4ccccc4)C[C@H]3N2C1=O | 0.039 | 1.4 | 27 | > 1000 | 3000 | – | –
32 | CN[C@@H](C)C(=O)N[C@H]1CCC[C@H]2C[C@H]3CCN(C(=O)c4ccccc4)C[C@H]3N2C1=O | > 0.7 | -0.4 | 7.05 | > 1000 | – | > 10000 | IC50 [1]: > 10000 nM
33 | CN[C@@H](C)C(=O)N[C@H]1CCC[C@H]2C[C@H]3CCN(C(=O)OCc4ccccc4)C[C@H]3N2C1=O | 0.42 | – | – | – | > 369 | – | microsomal CLint ([4]; microsomes, CLH): 20 µL/min/mg
34 | CN[C@@H](C)C(=O)N[C@H]1CCC[C@H]2C[C@H]3CCN(C(=O)Oc4ccccc4)C[C@H]3N2C1=O | – | – | – | 700 (≈ 300 µg/mL) | 910 | – | fraction unbound [2]: 0.51; logD [3]: 0.7; microsomal CLint ([4]; liver microsomes): 6.3 µL/min/mg
35 | CN[C@@H](C)C(=O)N[C@H]1CCC[C@H]2C[C@H]3CCN(C(=O)Nc4ccccc4)C[C@H]3N2C1=O | 0.62 | 0.6 | 6.7 | > 1000 | 3900 | – | –
36 | CN[C@@H](C)C(=O)N[C@H]1CCC[C@H]2C[C@H]3CCN(S(=O)(=O)Cc4ccccc4)C[C@H]3N2C1=O | 0.4 | 0.4 | 25 | > 1000 | > 11000 | – | IC50 [1]: 2800 nM
37 | CN[C@@H](C)C(=O)N[C@H]1CCC[C@H]2C[C@H]3CCN(S(=O)(=O)c4ccccc4)C[C@H]3N2C1=O | 0.2 | 0.7 | 7.1 | > 1000 | – | – | IC50 [1]: 8000 nM
38 | CN[C@@H](C)C(=O)N[C@H]1CCC[C@H]2C[C@H]3CCN(CC(C)c4ccccc4)C[C@H]3N2C1=O (mixture of isomers) | 0.18 | 1.4 | < 4 | – | 2500 | – | IC50 [1]: 180 nM
39 | CN[C@@H](C)C(=O)N[C@H]1CCC[C@H]2C[C@H]3CCN(C(=O)C(OCC#CC#CCOC(C(=O)N4CC[C@@H]5C[C@@H]6CCC[C@H](NC(=O)[C@H](C)NC)C(=O)N6[C@@H]5C4)c4ccccc4)c4ccccc4)C[C@H]3N2C1=O (single isomer, unassigned; isomer 2) | – | – | – | – | – | – | GI50 [6]: 200 nM; Fu [8]: 10%; logD [3]: 1.9
